According to patent US8987287B2, “Spirocyclic morphinans and their use” (Purdue Pharma L.P., priority 2012, dated 2015):

Experiments:
μ-opioid receptor = μ-opioid receptor (Homo sapiens (Human), UniProt P35372); test: μ-opioid receptor [35S]GTPγS functional assay, U-2 OS cells; type: biochemical; settings: for Emax: relative to DAMGO, U-2 OS cells
Protocol: μ-Opioid Receptor Functional Assay Procedures: [^35S]GTPγS functional assays were conducted using freshly thawed μ-receptor membranes prepared in-house from a cell line expressing recombinant μ opioid receptor in a HEK-293, CHO or U-2 OS cell background, or purchased from a commercial source (Perkin Elmer, Shelton, Conn.; or DiscovRx, Fremont, Calif.). Assay reactions were prepared by sequentially adding the following reagents to binding buffer (100 mM NaCl, 10 mM MgCl2, 20 mM HEPES, pH 7.4) on ice (final concentrations indicated): membrane protein (0.026 mg/mL), saponin ([…]), GDP ([…]) and [^35S]GTPγS (0.20 nM; Perkin Elmer, Shelton, Conn.). The prepared membrane solution (190 μl/well) was transferred to 96-shallow well polypropylene plates containing 10 μl of 20× concentrated stock solutions of the agonist [D-Ala^2, N-methyl-Phe^4 Gly-ol^5]-enkephalin (DAMGO) prepared in dimethyl sulfoxide (DMSO). Plates were incubated for 30 min at about 25° C. with shaking. Reactions were terminated by rapid filtration onto 96-well Unifilter GF/B filter plates (Perkin Elmer, Shelton, Conn.) using a 96-well tissue harvester (Perkin Elmer, Shelton, Conn.) followed by three filtration washes with 200 μl of ice-cold wash buffer (10 mM NaH2PO4, 10 mM Na2HPO4, pH 7.4). Filter plates were subsequently dried at 50° C. for 2-3 hours. BetaScint scintillation cocktail (Perkin Elmer, Shelton, Conn.) was added (50 μl/well) and plates were counted using a Packard Top-Count for 1 min/well. Data were analyzed using the sigmoidal dose-response curve fitting functions in GraphPad PRISM v. 3.0, or an in-house function for non-linear, sigmoidal dose-response curve-fitting.
μ-Opioid Receptor Functional Data: μ GTP EC50 is the concentration of a compound providing 50% of the maximal response for the compound at a μ-opioid receptor.
μ GTP Emax (%) is the maximal effect elicited by a compound relative to the effect elicited by DAMGO, a standard μ agonist. Generally, the μ GTP Emax (%) value measures the efficacy of a compound to treat or prevent pain or other Conditions.
(§1) The following TABLE 3 provides results on the activity response of certain Compounds of the Invention at the μ- and κ-opioid receptors determined as described above using U-2 OS cells.

κ opioid receptor = κ opioid receptor (Homo sapiens (Human), UniProt P41145); test: κ-opioid receptor [35S]GTPγS functional assay, U-2 OS cells; type: biochemical; settings: for Emax: relative to U69,593, U-2 OS cells
Protocol: κ-Opioid Receptor Functional Assay Procedures: Functional [^35S]GTPγS binding assays were conducted as follows. κ opioid receptor membrane solution was prepared by sequentially adding final concentrations of 0.026 μg/μl κ membrane protein (in-house), 10 μg/mL saponin, 3 μM GDP and 0.20 nM [^35S]GTPγS to binding buffer (100 mM NaCl, 10 mM MgCl2, 20 mM HEPES, pH 7.4) on ice. The prepared membrane solution (190 μl/well) was transferred to 96-shallow well polypropylene plates containing 10 μl of 20× concentrated stock solutions of agonist prepared in DMSO. Plates were incubated for 30 min at a temperature of about 25° C. with shaking. Reactions were terminated by rapid filtration onto 96-well Unifilter GF/B filter plates (Perkin Elmer, Shelton, Conn.) using a 96-well tissue harvester (Packard) and followed by three filtration washes with 200 μl ice-cold binding buffer (10 mM NaH2PO4, 10 mM Na2HPO4, pH 7.4). Filter plates were subsequently dried at 50° C. for 2-3 hours. Fifty μl/well scintillation cocktail (Perkin Elmer, Shelton, Conn.) was added and plates were counted in a Packard Top-Count for 1 min/well.
κ-Opioid Receptor Functional Data: κ GTP EC50 is the concentration of a compound providing 50% of the maximal response for the compound at a κ receptor.
κ GTP Emax (%) is the maximal effect elicited by a compound relative to the effect elicited by U69,593.
as §1

Structure (SMILES)	EC50 (μ-opioid receptor) [nM]	Emax (μ-opioid receptor) [%]	EC50 (κ opioid receptor) [nM]	Emax (κ opioid receptor) [%]
CCN1C(=O)N[C@]2(CC[C@@]3(O)[C@H]4Cc5ccc(O)cc5[C@@]3(CCN4CC3CC3)C2)C1=O [Compound 45, (4S,4b′R,8a′S,9′R)-11′-(cyclopropylmethyl)-1-ethyl-3′,8a′-dihydroxy-8′,8a′,9′,10′-tetrahydro-5′H,7′H-spiro[imidazolidine-4,6′-[9,4b](epiminoethano)phenantrene]-2,5-dione]	6.47 ± 0.69	45.9 ± 3.04	4.34 ± 0.74	96.3 ± 1.33
CCN1C(=O)N(CC)[C@]2(CC[C@@]3(O)[C@H]4Cc5ccc(O)cc5[C@@]3(CCN4CC3CC3)C2)C1=O [Compound 46, (4S,4b′R,8a′S,9′R)-11′-(cyclopropylmethyl)-1,3-diethyl-3′,8a′-dihydroxy-8′,8a′,9′,10′-tetrahydro-5′H,7′H-spiro[imidazolidine-4,6′-[9,4b](epiminoethano)phenantrene]-2,5-dione]	1.74 ± 0.22	10.7 ± 0.33	1.57 ± 0.19	96.7 ± 3.67
O=C1N[C@]2(CC[C@@]3(O)[C@H]4Cc5ccc(O)cc5[C@@]3(CCN4CC3CC3)C2)C(=O)N1Cc1ccc(O)cc1 [Compound 47, (4S,4b′R,8a′S,9′R)-11′-(cyclopropylmethyl)-3′,8a′-dihydroxy-1-(4-hydroxybenzyl)-8′,8a′,9′,10′-tetrahydro-5′H,7′H-spiro[imidazolidine-4,6′-[9,4b](epiminoethano)-phenantrene]-2,5-dione]	4.66 ± 0.89	49 ± 1.53	1.21 ± 0.11	104 ± 3.67
CCN1C(=O)N(Cc2ccc(O)cc2)C(=O)[C@@]12CC[C@@]1(O)[C@H]3Cc4ccc(O)cc4[C@@]1(CCN3CC1CC1)C2 [Compound 48, (4S,4b′R,8a′S,9′R)-11′-(cyclopropylmethyl)-3-ethyl-3′,8a′-dihydroxy-1-(4-hydroxybenzyl)-8′,8a′,9′,10′-tetrahydro-5′H,7′H-spiro[imidazolidin-4,6′-[9,4b](epiminoethano)-phenantrene]-2,5-dione]	0.82 ± 0.093	12 ± 0.58	2.61 ± 0.3	105 ± 1.2
CCN1C(=O)N[C@]2(CC[C@@]3(O)[C@H]4Cc5ccc(O)cc5[C@@]3(CCN4C)C2)C1=O [Compound 61, (4S,4b′R,8a′S,9′R)-1-ethyl-3′,8a′-dihydroxy-11′-methyl-8′,8a′,9′,10′-tetrahydro-5′H,7′H-spiro[imidazolidine-4,6′-[9,4b](epiminoethano)phenantrene]-2,5-dione]	39.1 ± 4.82	103.3 ± 0.88	2480 ± 249	109 ± 6.06
CCN1C(=O)N(CC)[C@]2(CC[C@@]3(O)[C@H]4Cc5ccc(O)cc5[C@@]3(CCN4C)C2)C1=O [Compound 62, (4S,4b′R,8a′S,9′R)-1,3-diethyl-3′,8a′-dihydroxy-11′-methyl-8′,8a′,9′,10′-tetrahydro-5′H,7′H-spiro[imidazolidine-4,6′-[9,4b](epiminoethano)phenantrene]-2,5-dione]	75.2 ± 3.36	78 ± 0.58	711 ± 37.8	108 ± 2.52
O=C1NC(=O)[C@@]2(CC[C@@]3(O)[C@H]4Cc5ccc(O)cc5[C@@]3(CCN4CC3CC3)C2)N1CC(F)(F)F [Compound 64, (4S,4b′R,8a′S,9′R)-11′-(cyclopropylmethyl)-3′,8a′-dihydroxy-3-(2,2,2-trifluoroethyl)-8′,8a′,9′,10′-tetrahydro-5′H,7′H-spiro[imidazolidine-4,6′-[9,4b](epiminoethano)-phenantrene]-2,5-dione]	2.76 ± 0.5	14 ± 0.58	22.2 ± 1.46	106 ± 2.85
O=C1NC(=O)[C@@]2(CC[C@@]3(O)[C@H]4Cc5ccc(O)cc5[C@@]3(CCN4CC3CC3)C2)N1CC1CC1 [Compound 65, (4S,4b′R,8a′S,9′R)-3,11′-bis(cyclopropylmethyl)-3′,8a′-dihydroxy-8′,8a′,9′,10′-tetrahydro-5′H,7′H-spiro[imidazolidine-4,6′-[9,4b](epiminoethano)phenantrene]-2,5-dione]	> 20000	2	36.4 ± 7.08	92.3 ± 1.45
CN1CC[C@]23C[C@@]4(CC[C@@]2(O)[C@H]1Cc1ccc(O)cc13)C(=O)NC(=O)N4CC1CC1 [Compound 66, (4bR,4′S,8aS,9R)-3′-(cyclopropylmethyl)-3,8a-dihydroxy-11-methyl-5,7,8,8a,9,10-hexahydrospiro[9,4b-(epiminoethano)phenanthren-6,4′-imidazolidine]-2′,5′-dione]	76 ± 2.31	98 ± 1.15	4650 ± 302	103 ± 7.09
O=C1NC(=O)[C@@]2(CC[C@@]3(O)[C@H]4Cc5ccc(O)cc5[C@@]3(CCN4CC3CC3)C2)N1Cc1ccccc1 [Compound 67, (4bR,4′S,8aS,9R)-3′-benzyl-11-(cyclopropylmethyl)-3,8a-dihydroxy-5,7,8,8a,9,10-hexahydrospiro[9,4b-(epiminoethano)phenanthrene-6,4′-imidazolidine]-2′,5′-dione]	9.38 ± 0.76	20	28.4 ± 8.48	115 ± 4.84
N#CCN1C(=O)NC(=O)[C@@]12CC[C@@]1(O)[C@H]3Cc4ccc(O)cc4[C@@]1(CCN3CC1CC1)C2 [Compound 68, 2-((4bR,4′S,8aS,9R)-11-(cyclopropylmethyl)-3,8a-dihydroxy-2,5-dioxo-5,7,8,8a,9,10-hexahydrospiro[9,4b-(epiminoethano)phenanthrene-6,4′-imidazolidin]-3′-yl)acetonitrile]	5.63 ± 1.74	16 ± 1.15	7.06 ± 1.53	108 ± 6.89
CCN1C(=O)NC(=O)[C@@]12CC[C@@]1(O)[C@H]3Cc4ccc(O)cc4[C@@]1(CCN3C)C2 [Compound 69, (4S,4b′R,8a′S,9′R)-3-ethyl-3′,8a′-dihydroxy-11′-methyl-8′,8a′,9′,10′-tetrahydro-5′H,7′H-spiro[imidazolidine-4,6′-[9,4b](epiminoethano)phenantrene]-2,5-dione]	43.6 ± 2.97	97.3 ± 1.45	866 ± 94.6	110 ± 8.5
CN1CC[C@]23C[C@@]4(CC[C@@]2(O)[C@H]1Cc1ccc(O)cc13)C(=O)NC(=O)N4C [Compound 70, (4S,4b′R,8a′S,9′R)-3′,8a′-dihydroxy-3,11′-dimethyl-8′,8a′,9′,1′-tetrahydro-5′H,7′H-spiro[imidazolidine-4,6′-[9,4b](epiminoethano)phenantrene]-2,5-dione]	23.4 ± 2.03	99 ± 1.53	322 ± 28.1	118 ± 9.61
